Patent US20240216317A1, “COMPOSITION FOR PREVENTING, AMELIORATING OR TREATING INFLAMMATORY BOWEL DISEASE COMPRISING COMPOUND ISOLATED FROM ISODON EXCISUS AS EFFECTIVE COMPONENT” (HEALINNOLS INC., priority 2022, published 2024)

System: ZO-1
Assay: Immunofluorescence microscopy of tight junction-related protein ZO-1 in intestinal epithelial wall model (DSS-treated Caco-2)
Type: cell-based, human
Conditions: 3% DSS, 24 hours; Chemical formula 1 0.3, 1 or 3 μM; 5-ASA 500 μM; FIG. 2
Experimental: Caco-2 cell line (human intestinal epithelial cell line) and RAW 264.7 cell line, which is macrophage cells derived from mouse, were cultured at 37° C., 5% CO2 conditions by using DMEM (Dulbecco's Modified Eagle Medium, #11995065, Gibco) containing 10% FBS (fetal bovine serum, #16000044, Gibco) and 1% streptomycin/penicillin (#15140122, Gibco). For culturing the cells, the medium exchange was carried out every 2 to 3 days, and, once the cells are grown to the level of 80% in cell culture dish (#353003, Falcon), they were maintained by subculture.
The Caco-2 cells were adjusted to have density of 2×10^5 cells/ml. Suspension of the cells (0.5 ml) was aliquoted in apical side membrane phase of a transwell insert 12-well plate. To the basolateral side phase, 1.5 ml of culture medium were added. While replacing the medium with fresh one, once per 2 or 3 days, culture was continued for 21 days approximately, i.e., till to have cell division and suitable TEER (transepithelial electrical resistance) value of monolayer. […]
Thereafter, the cells were washed 3 times with 1×PBS for 5 minutes and treated for 5 minutes with Hoechst 33342 for staining the nucleus. […] After the mounting with ProLong™ Gold Antifade reagent, it was examined by confocal fluorescence microscopy.

Row | SMILES | expression amount of ZO-1 compared to DSS model group
1 | COC(=O)C[C@H](OC(=O)/C=C/c1ccc(O)c(O)c1)c1ccc(O)c(O)c1 [Compound 1, 3-[3,4-dihydroxyphenyl]acrylic acid 1-[3,4-dihydroxyphenyl]-2-methoxycarbonylethyl ester] | statistically significantly higher
2 | Nc1ccc(O)c(C(=O)O)c1 [Compound 5-ASA, 5-aminosalicylic acid, reference compound] | statistically significantly higher
